From ChEMBL document CHEMBL5136992, “Fascinating Transformation of SAM-Competitive Protein Methyltransferase Inhibitors from Nucleoside Analogues to Non-Nucleoside Analogues” (J Med Chem, 2022) come the findings set out here.

Bounds are passed on as bounds.

A short description of series [1]: Microsomal stability in rat liver microsomes assessed as remaining compound after 1 hr incubation. It is filed as ADME, Microsome. To be noted: read-out: Stability.
Series [2] deals with T1, Histone-lysine N-methyltransferase SMYD3 (Homo sapiens, UniProt Q9H7B4).
T1 sequence (Q9H7B4 whole entry): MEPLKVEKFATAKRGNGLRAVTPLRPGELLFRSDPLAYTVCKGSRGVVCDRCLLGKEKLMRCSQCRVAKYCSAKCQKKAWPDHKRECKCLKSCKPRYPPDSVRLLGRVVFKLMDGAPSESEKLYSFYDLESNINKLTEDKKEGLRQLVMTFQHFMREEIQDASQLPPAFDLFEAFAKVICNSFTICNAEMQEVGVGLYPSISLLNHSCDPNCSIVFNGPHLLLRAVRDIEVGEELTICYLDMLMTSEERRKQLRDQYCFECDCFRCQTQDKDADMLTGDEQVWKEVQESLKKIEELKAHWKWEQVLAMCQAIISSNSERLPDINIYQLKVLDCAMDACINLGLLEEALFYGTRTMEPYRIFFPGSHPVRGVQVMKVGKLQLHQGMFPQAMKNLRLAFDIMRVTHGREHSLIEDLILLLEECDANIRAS
Nature of the series: Inhibition of SMYD3 (unknown origin).

The target in series [3] is T2, Protein arginine N-methyltransferase 7 (Homo sapiens, UniProt Q9NVM4).
T2 sequence (Q9NVM4 whole entry): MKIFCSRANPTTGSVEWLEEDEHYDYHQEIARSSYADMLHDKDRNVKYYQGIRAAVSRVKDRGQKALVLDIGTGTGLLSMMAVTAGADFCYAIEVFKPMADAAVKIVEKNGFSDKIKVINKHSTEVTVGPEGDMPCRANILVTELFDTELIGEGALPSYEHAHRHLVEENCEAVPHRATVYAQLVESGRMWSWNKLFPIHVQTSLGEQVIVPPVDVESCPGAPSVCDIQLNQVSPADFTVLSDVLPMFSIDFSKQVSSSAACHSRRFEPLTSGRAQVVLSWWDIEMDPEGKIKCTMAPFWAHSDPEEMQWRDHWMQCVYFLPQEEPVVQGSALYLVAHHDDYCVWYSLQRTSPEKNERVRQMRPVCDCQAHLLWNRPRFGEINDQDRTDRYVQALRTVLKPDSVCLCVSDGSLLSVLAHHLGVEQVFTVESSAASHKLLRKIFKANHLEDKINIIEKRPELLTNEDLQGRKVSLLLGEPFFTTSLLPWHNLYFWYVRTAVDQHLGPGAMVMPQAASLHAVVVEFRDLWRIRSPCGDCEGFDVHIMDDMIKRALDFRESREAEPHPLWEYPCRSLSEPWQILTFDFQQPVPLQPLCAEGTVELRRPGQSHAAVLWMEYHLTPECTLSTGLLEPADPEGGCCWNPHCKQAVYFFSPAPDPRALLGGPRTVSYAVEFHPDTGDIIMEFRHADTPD
Briefly: Inhibition of PRMT7 (unknown origin).

Series [4] deals with Histone-lysine N-methyltransferase SETD2 (Homo sapiens, UniProt Q9BYW2). Nature of the series: Inhibition of SETD2 (unknown origin).
Series [5] concerns the target Protein arginine N-methyltransferase 5 (Homo sapiens, UniProt O14744). Briefly: Binding affinity to PRMT5 (unknown origin) assessed as inhibition constant.

Sequence of Protein arginine N-methyltransferase 5 (O14744 whole entry): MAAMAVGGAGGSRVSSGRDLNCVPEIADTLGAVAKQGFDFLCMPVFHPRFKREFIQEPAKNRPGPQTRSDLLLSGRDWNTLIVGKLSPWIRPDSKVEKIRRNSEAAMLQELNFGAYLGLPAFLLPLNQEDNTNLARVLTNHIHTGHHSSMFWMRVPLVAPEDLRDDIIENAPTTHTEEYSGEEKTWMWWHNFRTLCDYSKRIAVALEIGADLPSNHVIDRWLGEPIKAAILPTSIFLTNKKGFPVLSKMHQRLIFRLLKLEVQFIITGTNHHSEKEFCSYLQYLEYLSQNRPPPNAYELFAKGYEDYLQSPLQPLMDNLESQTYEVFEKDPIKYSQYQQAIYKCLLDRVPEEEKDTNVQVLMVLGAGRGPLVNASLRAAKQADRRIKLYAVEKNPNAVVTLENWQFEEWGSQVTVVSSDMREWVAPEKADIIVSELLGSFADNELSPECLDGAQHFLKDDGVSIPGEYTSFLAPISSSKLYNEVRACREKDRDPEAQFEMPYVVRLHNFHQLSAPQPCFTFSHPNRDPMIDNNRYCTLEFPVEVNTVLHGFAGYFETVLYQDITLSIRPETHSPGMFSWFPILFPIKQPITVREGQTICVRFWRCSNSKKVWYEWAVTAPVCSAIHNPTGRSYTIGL
Sequence of Histone-lysine N-methyltransferase SETD2 (Q9BYW2 whole entry): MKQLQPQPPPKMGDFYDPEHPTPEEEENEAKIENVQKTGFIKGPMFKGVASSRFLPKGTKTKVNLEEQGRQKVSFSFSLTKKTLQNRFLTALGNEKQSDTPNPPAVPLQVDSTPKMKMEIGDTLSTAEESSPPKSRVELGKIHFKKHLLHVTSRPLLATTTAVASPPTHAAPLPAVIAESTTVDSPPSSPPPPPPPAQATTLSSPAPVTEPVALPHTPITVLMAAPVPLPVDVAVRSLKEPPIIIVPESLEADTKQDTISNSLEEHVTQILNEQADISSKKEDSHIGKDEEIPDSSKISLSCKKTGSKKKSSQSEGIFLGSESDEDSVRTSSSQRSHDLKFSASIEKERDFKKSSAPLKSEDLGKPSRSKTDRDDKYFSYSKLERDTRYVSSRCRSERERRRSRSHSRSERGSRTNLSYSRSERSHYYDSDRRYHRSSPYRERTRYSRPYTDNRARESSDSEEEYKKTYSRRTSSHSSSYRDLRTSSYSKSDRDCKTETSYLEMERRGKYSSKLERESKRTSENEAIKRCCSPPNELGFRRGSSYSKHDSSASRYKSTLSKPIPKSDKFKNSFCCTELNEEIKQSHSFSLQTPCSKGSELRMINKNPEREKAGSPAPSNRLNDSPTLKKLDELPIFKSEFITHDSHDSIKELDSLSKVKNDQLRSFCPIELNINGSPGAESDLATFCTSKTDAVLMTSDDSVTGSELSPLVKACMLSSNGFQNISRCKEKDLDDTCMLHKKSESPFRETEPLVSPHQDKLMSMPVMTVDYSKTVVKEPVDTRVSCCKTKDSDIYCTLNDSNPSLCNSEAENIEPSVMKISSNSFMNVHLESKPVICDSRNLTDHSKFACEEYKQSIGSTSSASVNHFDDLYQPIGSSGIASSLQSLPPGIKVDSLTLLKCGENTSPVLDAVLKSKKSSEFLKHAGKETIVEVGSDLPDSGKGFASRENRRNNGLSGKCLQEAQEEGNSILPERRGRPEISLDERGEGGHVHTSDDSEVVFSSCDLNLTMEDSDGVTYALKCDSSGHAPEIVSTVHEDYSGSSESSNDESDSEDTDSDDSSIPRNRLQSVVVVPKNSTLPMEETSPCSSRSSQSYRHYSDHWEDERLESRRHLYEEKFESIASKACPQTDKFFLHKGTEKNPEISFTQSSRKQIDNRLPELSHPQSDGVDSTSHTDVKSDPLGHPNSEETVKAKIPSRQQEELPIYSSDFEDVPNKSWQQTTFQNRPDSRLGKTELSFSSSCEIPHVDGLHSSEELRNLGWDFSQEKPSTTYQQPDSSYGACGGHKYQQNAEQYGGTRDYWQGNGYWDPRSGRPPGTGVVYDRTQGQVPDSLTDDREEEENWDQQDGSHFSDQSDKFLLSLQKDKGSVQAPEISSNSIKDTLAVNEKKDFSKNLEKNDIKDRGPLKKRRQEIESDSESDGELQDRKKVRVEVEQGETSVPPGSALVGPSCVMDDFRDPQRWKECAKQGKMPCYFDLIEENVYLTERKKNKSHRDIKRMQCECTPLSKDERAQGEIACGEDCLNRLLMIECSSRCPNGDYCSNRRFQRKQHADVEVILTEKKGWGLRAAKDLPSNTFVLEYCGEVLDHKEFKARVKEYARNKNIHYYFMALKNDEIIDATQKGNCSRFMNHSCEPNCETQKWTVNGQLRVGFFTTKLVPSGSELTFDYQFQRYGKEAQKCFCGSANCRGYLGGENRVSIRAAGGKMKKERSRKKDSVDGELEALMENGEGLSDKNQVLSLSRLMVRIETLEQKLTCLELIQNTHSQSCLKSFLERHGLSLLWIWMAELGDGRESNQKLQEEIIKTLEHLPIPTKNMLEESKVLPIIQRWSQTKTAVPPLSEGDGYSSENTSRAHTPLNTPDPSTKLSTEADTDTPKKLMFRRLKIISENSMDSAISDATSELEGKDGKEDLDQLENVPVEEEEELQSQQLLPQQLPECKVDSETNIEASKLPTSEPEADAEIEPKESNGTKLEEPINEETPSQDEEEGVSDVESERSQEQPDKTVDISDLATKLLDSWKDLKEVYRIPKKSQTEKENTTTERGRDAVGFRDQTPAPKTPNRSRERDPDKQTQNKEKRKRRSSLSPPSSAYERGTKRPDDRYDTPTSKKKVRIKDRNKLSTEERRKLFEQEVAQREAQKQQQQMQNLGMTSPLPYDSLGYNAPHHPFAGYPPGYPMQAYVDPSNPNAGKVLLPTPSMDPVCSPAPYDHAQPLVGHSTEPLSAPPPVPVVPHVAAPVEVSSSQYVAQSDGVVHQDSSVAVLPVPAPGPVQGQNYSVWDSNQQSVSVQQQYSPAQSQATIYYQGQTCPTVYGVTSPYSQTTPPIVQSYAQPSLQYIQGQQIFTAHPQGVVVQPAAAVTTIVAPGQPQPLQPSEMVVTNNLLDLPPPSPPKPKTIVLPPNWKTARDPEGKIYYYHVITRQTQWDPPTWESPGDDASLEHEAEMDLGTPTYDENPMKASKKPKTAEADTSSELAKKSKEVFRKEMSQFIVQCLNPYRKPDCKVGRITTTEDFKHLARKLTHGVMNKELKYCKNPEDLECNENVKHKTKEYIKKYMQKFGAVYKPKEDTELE

`COc1cccc(CCNC(=O)[C@H](CC[C@@H](CNCc2ccccc2)C[C@H]2O[C@@H](n3cnc4c(N)ncnc43)[C@H](O)[C@@H]2O)NC(=O)CC(C)(C)C2=C(C)C(=O)C(C)=C(C)C2=O)c1`: the remaining at 1 h in series [1] worked out at 24%.
For the compound `CN(C)CCCN(CC[C@H](N)C(=O)O)C[C@@H]1O[C@H](n2cnc3c(N)ncnc32)[C@@H](O)[C@H]1O`, the midpoint of inhibition in series [2], the IC50, lay at 130 nM.
In the case of `Nc1ncnc2c1ncn2[C@@H]1O[C@H](CSCCCCNCc2cccc(-c3ccc(Cl)cc3)c2)[C@@H](O)[C@H]1O`, the IC50 (commonly the concentration that inhibits the measured activity by half) in series [3] is less than 2.5 nM.
Consider `CCCN(CC[C@H](N)C(=O)O)C[C@@H]1O[C@H](n2cnc3c(N)ncnc32)[C@@H](O)[C@H]1O`, for which half-maximal inhibition in series [4] (IC50) required 800 nM.
For the compound `Nc1ncnc2c1ccn2[C@H]1O[C@@H]([C@H](O)c2ccc(Cl)c(F)c2)[C@H](O)[C@@H]1O`, the inhibitory constant (Ki) (usually a dissociation constant, usually derived from enzyme kinetics or from competition with a known ligand) in series [5] was 0.02 nM.
